Laboratory results taken from PubChem BioAssay AID330 (DTP/NCI, 2004).
Values joined by “and” are separate entries in the source; they are usually repeats but may differ in a detail not shown here. Equal values may be shown once. Toxic doses and inconclusive results are not listed.

System: P388 leukemia ip, CD2F1 mice, survival T/C
Experiment: NCI In Vivo Anticancer Drug Screen. Data for tumor model P388 Leukemia (intraperitoneal) in CD2F1 (CDF1) mice
Conditions: endpoint: median survival time, higher = longer survival
How it was run: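 Mice carrying the transplanted tumor received test compound or vehicle. Survival was recorded in each group, and the value is the treated-group measurement divided by that of the vehicle-treated control group.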

For `COc1cccc2c1C(=O)c1c(O)c3c(c(O)c1C2=O)C[C@@](O)(C(=O)CO)C[C@@H]3OC1CC(N)C(O)C(C)O1` (stereo partly drawn), the T/C (dose: 0.04 mg/kg/injection, schedule: Q04DX003 (ip), vehicle: saline) was 116 % of control, the T/C (dose: 0.04 mg/kg/injection, schedule: Q04DX003 (ip), vehicle: water) was 115 % of control and the T/C (dose: 0.06 mg/kg/injection, schedule: Q01DX005 (sc), vehicle: water) was 100 % of control. The T/C (dose: 0.06 mg/kg/injection, schedule: Q03HX008 (ip), vehicle: saline) was 114 % of control, the T/C (dose: 0.06 mg/kg/injection, schedule: Q04DX003 (ip), vehicle: water) was 122 % of control and the T/C (dose: 0.1 mg/kg/injection, schedule: Q04DX003 (ip), vehicle: water) was 121 % of control. The T/C (dose: 0.12 mg/kg/injection, schedule: Q01DX005 (sc), vehicle: water) was 101 % of control, the T/C (dose: 0.13 mg/kg/injection, schedule: Q01DX009 (ip), vehicle: water) was 162 % of control and the T/C (dose: 0.13 mg/kg/injection, schedule: Q03HX008 (ip), vehicle: saline) was 116 % of control. The T/C (dose: 0.25 mg/kg/injection, schedule: Q01DX001 (ip), vehicle: Klucel (hydroxypropylcellulose) (HPC)) was 108 % of control, the T/C (dose: 0.25 mg/kg/injection, schedule: Q01DX001 (ip), vehicle: saline with Tween-80) was 112 % of control and the T/C (dose: 0.25 mg/kg/injection, schedule: Q01DX001 (ip), vehicle: saline) was 105 % of control. The T/C (dose: 0.25 mg/kg/injection, schedule: Q01DX005 (ip), vehicle: water) was 153 % of control and 160 % of control and 161 % of control, the T/C (dose: 0.25 mg/kg/injection, schedule: Q01DX005 (sc), vehicle: water) was 103 % of control and the T/C (dose: 0.3 mg/kg/injection, schedule: Q04DX003 (ip), vehicle: water) was 153 % of control. For the same molecule, the T/C (dose: 0.38 mg/kg/injection, schedule: Q01DX009 (ip), vehicle: water) was 151 % of control, the T/C (dose: 0.38 mg/kg/injection, schedule: Q04DX003 (ip), vehicle: water) was 103 % of control and the T/C (dose: 0.44 mg/kg/injection, schedule: Q04DX003 (ip), vehicle: saline) was 158 % of control. The T/C (dose: 0.5 mg/kg/injection, schedule: Q01DX001 (ip), vehicle: Klucel (hydroxypropylcellulose) (HPC)) was 112 % of control, the T/C (dose: 0.5 mg/kg/injection, schedule: Q01DX001 (ip), vehicle: saline with Tween-80) was 115 % of control and the T/C (dose: 0.5 mg/kg/injection, schedule: Q01DX005 (oral), vehicle: water) was 108 % of control. For the same molecule, the T/C (dose: 0.5 mg/kg/injection, schedule: Q01DX005 (sc), vehicle: water) was 108 % of control, the T/C (dose: 0.58 mg/kg/injection, schedule: Q04DX003 (ip), vehicle: saline) was 159 % of control and the T/C (dose: 0.62 mg/kg/injection, schedule: Q01DX001 (ip), vehicle: water) was 159 % of control. For the same molecule, the T/C (dose: 0.63 mg/kg/injection, schedule: Q01DX001 (ip), vehicle: water) was 154 % of control, the T/C (dose: 0.75 mg/kg/injection, schedule: Q04DX003 (ip), vehicle: water) was 118 % of control and the T/C (dose: 0.97 mg/kg/injection, schedule: Q04DX002 (ip), vehicle: saline) was 157 % of control and 160 % of control. The T/C (dose: 0.97 mg/kg/injection, schedule: Q04DX003 (ip), vehicle: water) was 163 % of control, the T/C (dose: 1.0 mg/kg/injection, schedule: Q01DX001 (ip), vehicle: Klucel (hydroxypropylcellulose) (HPC)) was 110 % of control and the T/C (dose: 1.0 mg/kg/injection, schedule: Q01DX001 (ip), vehicle: saline with Tween-80) was 119 % of control. For the same molecule, the T/C (dose: 1.0 mg/kg/injection, schedule: Q01DX001 (iv), vehicle: saline) was 113 % of control, the T/C (dose: 1.0 mg/kg/injection, schedule: Q01DX005 (oral), vehicle: water) was 112 % of control and the T/C (dose: 1.0 mg/kg/injection, schedule: Q01DX005 (sc), vehicle: water) was 113 % of control. For the same molecule, the T/C (dose: 1.0 mg/kg/injection, schedule: Q04DX003 (iv), vehicle: saline) was 100 % of control, the T/C (dose: 1.04 mg/kg/injection, schedule: Q04DX002 (ip), vehicle: saline) was 161 % of control and the T/C (dose: 1.08 mg/kg/injection, schedule: Q04DX003 (ip), vehicle: saline) was 159 % of control. The T/C (dose: 1.3 mg/kg/injection, schedule: Q01DX001 (ip), vehicle: water) was 156 % of control, the T/C (dose: 1.5 mg/kg/injection, schedule: Q04DX003 (ip), vehicle: water) was 117 % of control and 120 % of control and the T/C (dose: 1.8 mg/kg/injection, schedule: Q01DX001 (ip), vehicle: saline) was 154 % of control. The T/C (dose: 2.0 mg/kg/injection, schedule: Q01DX001 (ip), vehicle: DMSO) was 157 % of control, the T/C (dose: 2.0 mg/kg/injection, schedule: Q01DX001 (ip), vehicle: Klucel (hydroxypropylcellulose) (HPC)) was 122 % of control and the T/C (dose: 2.0 mg/kg/injection, schedule: Q01DX001 (iv), vehicle: saline) was 108 % of control. For the same molecule, the T/C (dose: 2.0 mg/kg/injection, schedule: Q01DX005 (oral), vehicle: water) was 104 % of control, the T/C (dose: 2.0 mg/kg/injection, schedule: Q03HX008 (ip), vehicle: saline) was 162 % of control and the T/C (dose: 2.0 mg/kg/injection, schedule: Q04DX003 (iv), vehicle: saline) was 114 % of control. For the same molecule, the T/C (dose: 2.1 mg/kg/injection, schedule: Q01DX004 (ip), vehicle: saline) was 161 % of control, the T/C (dose: 2.59 mg/kg/injection, schedule: Q01DX001 (ip), vehicle: saline) was 160 % of control and the T/C (dose: 3.0 mg/kg/injection, schedule: Q01DX001 (ip), vehicle: saline) was 154 % of control. The T/C (dose: 3.0 mg/kg/injection, schedule: Q04DX003 (ip), vehicle: water) was 120 % of control, the T/C (dose: 3.7 mg/kg/injection, schedule: Q01DX001 (ip), vehicle: saline) was 153 % of control and the T/C (dose: 4.0 mg/kg/injection, schedule: Q01DX001 (ip), vehicle: DMSO) was 162 % of control. The T/C (dose: 4.0 mg/kg/injection, schedule: Q01DX001 (ip), vehicle: saline with Tween-80) was 122 % of control, the T/C (dose: 4.0 mg/kg/injection, schedule: Q01DX001 (iv), vehicle: saline) was 123 % of control and the T/C (dose: 4.0 mg/kg/injection, schedule: Q01DX005 (oral), vehicle: water) was 105 % of control. The T/C (dose: 4.5 mg/kg/injection, schedule: Q04DX003 (iv), vehicle: saline) was 163 % of control, the T/C (dose: 4.75 mg/kg/injection, schedule: Q01DX001 (ip), vehicle: saline) was 163 % of control and the T/C (dose: 5.0 mg/kg/injection, schedule: Q01DX009 (ip), vehicle: saline) was 98 % of control and 105 % of control. For the same molecule, the T/C (dose: 5.4 mg/kg/injection, schedule: Q04DX003 (ip), vehicle: saline) was 150 % of control, the T/C (dose: 5.4 mg/kg/injection, schedule: Q04DX003 (ip), vehicle: water) was 115 % of control and the T/C (dose: 6.0 mg/kg/injection, schedule: Q04DX003 (ip), vehicle: water) was 154 % of control. The T/C (dose: 6.0 mg/kg/injection, schedule: Q04DX003 (oral), vehicle: saline) was 98 % of control, the T/C (dose: 6.33 mg/kg/injection, schedule: Q01DX001 (iv), vehicle: saline) was 116 % of control and the T/C (dose: 8.0 mg/kg/injection, schedule: Q01DX001 (oral), vehicle: saline) was 98 % of control. For the same molecule, the T/C (dose: 8.0 mg/kg/injection, schedule: Q01DX005 (oral), vehicle: water) was 107 % of control, the T/C (dose: 8.0 mg/kg/injection, schedule: Q04DX002 (ip), vehicle: saline) was 108 % of control and the T/C (dose: 10.0 mg/kg/injection, schedule: Q04DX003 (oral), vehicle: saline) was 105 % of control. The T/C (dose: 11.25 mg/kg/injection, schedule: Q01DX001 (iv), vehicle: saline) was 156 % of control, the T/C (dose: 12.0 mg/kg/injection, schedule: Q01DX001 (oral), vehicle: saline) was 106 % of control and the T/C (dose: 15.0 mg/kg/injection, schedule: Q04DX003 (iv), vehicle: saline) was 153 % of control. For the same molecule, the T/C (dose: 16.0 mg/kg/injection, schedule: Q01DX001 (ip), vehicle: saline with Tween-80) was 151 % of control, the T/C (dose: 16.0 mg/kg/injection, schedule: Q01DX001 (oral), vehicle: saline) was 100 % of control and the T/C (dose: 16.0 mg/kg/injection, schedule: Q01DX005 (oral), vehicle: water) was 103 % of control. For the same molecule, the T/C (dose: 16.0 mg/kg/injection, schedule: Q04DX003 (iv), vehicle: saline) was 103 % of control, the T/C (dose: 16.7 mg/kg/injection, schedule: Q04DX003 (oral), vehicle: saline) was 107 % of control and 112 % of control and the T/C (dose: 17.5 mg/kg/injection, schedule: Q01DX001 (ip), vehicle: saline) was 150 % of control. The T/C (dose: 20.0 mg/kg/injection, schedule: Q01DX001 (oral), vehicle: saline) was 103 % of control, the T/C (dose: 27.8 mg/kg/injection, schedule: Q04DX003 (oral), vehicle: saline) was 100 % of control and 106 % of control and the T/C (dose: 32.0 mg/kg/injection, schedule: Q01DX001 (ip), vehicle: Klucel (hydroxypropylcellulose) (HPC)) was 112 % of control. The T/C (dose: 32.0 mg/kg/injection, schedule: Q01DX001 (ip), vehicle: saline with Tween-80) was 161 % of control, the T/C (dose: 32.0 mg/kg/injection, schedule: Q01DX001 (oral), vehicle: saline) was 100 % of control and the T/C (dose: 33.3 mg/kg/injection, schedule: Q01DX001 (oral), vehicle: saline) was 99 % of control and 106 % of control. For the same molecule, the T/C (dose: 46.3 mg/kg/injection, schedule: Q04DX003 (oral), vehicle: saline) was 103 % of control and 112 % of control, the T/C (dose: 64.0 mg/kg/injection, schedule: Q01DX001 (oral), vehicle: saline) was 107 % of control and the T/C (dose: 77.2 mg/kg/injection, schedule: Q04DX003 (oral), vehicle: saline) was 101 % of control. For the same molecule, the T/C (dose: 92.6 mg/kg/injection, schedule: Q01DX001 (oral), vehicle: saline) was 106 % of control, the T/C (dose: 128.0 mg/kg/injection, schedule: Q01DX001 (oral), vehicle: saline) was 100 % of control and the T/C (dose: 128.6 mg/kg/injection, schedule: Q04DX003 (oral), vehicle: saline) was 99 % of control. For the same molecule, the T/C (dose: 154.3 mg/kg/injection, schedule: Q01DX001 (oral), vehicle: saline) was 101 % of control.
